Measured values from patent publication US20060046972A1, “Cytotoxic nucleoside analog compound 003 for treating cancer” (Parker Hughes Institute, priority 2004, published 2006).

Legend:
DT40, chicken B lymphoma = experiment: DNA flow cytometry of cell cycle arrest, DT40; format: cell-based; settings: 100 μM, 48 hour
Method: (§1) Exponentially growing tumor cells were cultured at 1×10^6 cells/ml in clonogenic medium (RPMI 1640 medium +1% penicillin/streptomycin +10% heat-inactivated fetal bovine serum, 2 mML-glutamine, and 10 mM Hepes buffer) in the presence or absence of 100 μM compound 003 for 48 hour at 37° C., 5% CO2. At 48 h, cells were washed two times in fresh clonogenic medium, trypsinized, fixed in ice cold ethanol and labeled with propidium iodide to quantify their DNA content, as described previously (See, for example, Navara, et al., 2001, Anticancer Drugs. 12:369). Quantitative DNA analysis was performed on a Becton Dickenson Calibur flow cytometer equipped with a Consort 40 computer using the COTFIT program, which includes CELLCY, a cell cycle distribution function that fits DNA content histograms and calculates-the percentages of cells in G, S, and GM phases of the cell cycle, as described, for example, in Uckun et al., 1996, J Biol Chem. 271, 6389.

[1] = test system: human infant leukemia (RS4; 11); experiment: DNA flow cytometry of cell cycle arrest, RS4;11; format: cell-based; settings: 100 μM, 48 hour
Method: as §1

[2] = test system: Microsomal or cytosolic fractions of BT20 cells; experiment: Enzyme kinetics of Compound 003 metabolism in subcellular fractions, BT20; format: in vitro ADME, human
Method: 1−3×10^8 Nalm6 and BT20 cells were washed with PBS, resuspended in homogenizing buffer containing 10 mM Tris-HCl (pH 7.4) and 250 mM sucrose. Cells were sonicated and spun at 10,000×g, and the resulting supernatant was centrifuged again at 100,000×g to isolate microsomal and cytosolic fractions. The microsomal pellet was resuspended in a buffer containing 10 mM Tris-HCl (pH 7.4), 250 mM sucrose, 1 mM EDTA, and 20% glycerol. Microsomes or cytosols of Nalm6 (80 μg. and 86 μg, respectively) and BT20 cells (59 μg and 160 μg, respectively) were preincubated with or without 1 mM paraoxon in Tris-HCl buffer (pH 7.4) in a total volume of 250 μl for 10 minutes; 1. mM COMPOUND 003 was then added to the incubation mixture, and the reactions were allowed to proceed for another 30 minutes and terminated by addition of 125 μl of acetone. Protein precipitation was then removed by centrifugation; 100 μl of the supernatant was injected directly into the HPLC.
2.2.9 Enzyme Kinetics of Compound 003 Metabolism Microsomal or cytosolic fractions of Nalm6 and BT20 cells were incubated with COMPOUND 003 at various concentrations from 10 μM to 1.2 mM in similar reaction conditions as described above, except without the inhibitor. The reactions were allowed to proceed for 40 minutes. Km and Vmax in the Michaelis-Menten model were estimated by WinNonlin program (Scientific Consulting, Inc.)

COC(=O)C(C)NP(=O)(OCC1OC(n2cc(C)c(=O)[nH]c2=O)CC1N=[N+]=[N-])Oc1ccc(OC)cc1 (stereo not drawn) [Compound 003, 3′-azidothymidine 5′-[p-methoxyphenylmethoxyalaninyl phosphate]] was tested, and the cell cycle arrest (DT40, chicken B lymphoma) was “caused G2 arrest”, the cell cycle arrest [1] was “G2M cell cycle arrest” and the Km ([2]; cytosolic fraction) was 1750 µM. It also gave a Vmax ([2]; cytosolic fraction) of 5.9 nmol/mg/min, a Km ([2]; microsomal fraction) of 460 µM and a Vmax ([2]; microsomal fraction) of 0.7 nmol/mg/min.
